# In patent US5654398A, “Compositions and methods for inhibiting replication of human immunodeficiency virus-1” (priority 1993, dated 1997):
# Entries after “also recorded” stand apart in the source; their conditions may differ. Residues, ends and D or L forms follow the SMILES beside them.
# How the values were obtained:
# mutant (C46-G74) IIB RNA = format: binding, HIV-1; settings: for Kd: read-out: Knonsp (apparent Kd, mutant IIB RNA)
# Protocol: (§1) Gel shift assays were performed at 4° C. unless described otherwise. Peptide and RNA were incubated together for 15 min on ice in 10 μl binding reactions containing 10 mM HEPES-KOH, pH 7.5, 100 mM KCl, 1 mM MgCl2, 0.5 mM EDTA, 1 mM dithithreitol, 50 μg/ml E. coli tRNA, and 10% glycerol. To determine relative binding affinities, 0.5 nM radiolabeled IIB RNA (or IIB mutant) was titrated with peptide. Peptide-RNA complexes were resolved in 10% polyacrylamide, 0.5x TBE gels that had been prerun for 1 hr and allowed to cool to 4° C. Gels were electrophoresed at 220 V for 3 hr at 4° C., dried, and autoradiographed.
# (§2) FIG. 3C. Relationship between helix content of the Rev34-50 peptides and RNA-binding specificity. Apparent Kd s (the peptide concentration at which 50% of the RNA was shifted) were determined for wild-type (specific; Ksp) and mutant (nonspecific; Knonsp) IIB RNAs from the date in FIGS. 3A and 3B. Specificity, the ratio of specific to nonspecific apparent association constants (Ka s) is plotted against the helix content for each peptide, determined from the CD ellipticity at 222 nm (Chen et al., (1974) "Determination of the Helix and Beta Form of Proteins in Aqueous Solution by Circular Dichroism" Biochemistry 13:3350-3359 ) Peptide I: helix=0.1%; ksp =2000 nM; Knonsp =3000 nM. Peptide II: helix=3.9%; Ksp =300 nM; Knonsp =2000 nM. Peptide III: helix=10.9%; Ksp =100 nM; Knonsp =2000 nM. Peptide IV: helix=27.9%; Ksp =40 nM; Knonsp =2000 nM. Peptide V: helix=51.2%; Ksp =20 nM; Knonsp 1500 nM.
# wild-type RRE IIB RNA = format: binding, HIV-1; settings: for Kd: read-out: Ksp (apparent Kd, wild-type IIB RNA)
# Protocol: as §1, §2
# [1] = Circular dichroism, α-helix content; format: physicochemical; settings: for % Helix (α-helix content): from CD ellipticity at 222 nm, 4° C., pH 7.5
# Protocol: CD spectra were measured using an Aviv model 62DS spectropolarimeter. Samples were prepared in 10 mM potassium phosphate buffer, pH 7.5 and 100 mM KF, and temperature was maintained at 4° C. unless described otherwise. Spectra were recorded from 320 nm to 190 nm using a 1 cm pathlength cuvette and the signal was averaged for 10 sec. Scans were repeated five times and averaged. Peptide concentrations were typically 5-20 μM and ellipticity was calculated per amino acid residue.
# as §2
# [2] = tested on: IIB RNA mutant A71 (G71 to A71); experiment: RNA-binding gel shift assay, A71 mutant IIB RNA; set-up: species or system HIV-1; settings: in the presence of tRNA
# Protocol: as §1
# (§3) FIG. 1B. Peptide binding to IIB mutants. Binding reactions were carried out in the presence of tRNA at the peptide concentrations indicated, and free RNA and peptide-RNA complexes were resolved by the gel shift assay. Each pair of lanes corresponds to RNA alone and peptide-RNA binding reactions. […]. The wild-type lanes on both sides of the gel are identical. The slower mobility of the A71 mutant in the absence of peptide may indicate that its unbound conformation is different than wild-type IIB. […] This phenomenon has been seen with other mutant RNAs and with mutant Rev peptides, and has been interpreted as differences in RNA conformation between specific and nonspecific complexes (Kjems et al. (1992), supra).
# [3] = tested on: IIB RNA mutant A47 (G47 to A47); experiment: RNA-binding gel shift assay, A47 mutant IIB RNA; set-up: species or system HIV-1; settings: in the presence of tRNA
# Protocol: as §1, §3
SMILES,Kd (mutant (C46-G74) IIB RNA) [µM],Kd (wild-type RRE IIB RNA) [µM],% Helix (α-helix content) [1] [%],% Helix (α-helix content) ([1]; listed as N-Rev34-50 --am),specific RNA binding / discrimination between wild-type and mutant IIB RNAs (in words) (wild-type RRE IIB RNA),α-helix content by CD (in words) ([1]; CD spectra),Reduction of affinity compared to wild-type IIB [2],"Reduction of affinity compared to wild-type IIB (mutant (C46-G74) IIB RNA; C46-G74 base pair mutant, in the presence of tRNA)",Reduction of affinity compared to wild-type IIB [3]
"C[C@H](NC(=O)[C@H](CCC(N)=O)NC(=O)[C@H](CCCNC(=N)N)NC(=O)[C@@H](N)[C@@H](C)O)C(=O)N[C@@H](CCCNC(=N)N)C(=O)N[C@@H](CCCNC(=N)N)C(=O)N[C@@H](CC(N)=O)C(=O)N[C@@H](CCCNC(=N)N)C(=O)N[C@@H](CCCNC(=N)N)C(=O)N[C@@H](CCCNC(=N)N)C(=O)N[C@@H](CCCNC(=N)N)C(=O)N[C@@H](Cc1c[nH]c2ccccc12)C(=O)N[C@@H](CCCNC(=N)N)C(=O)N[C@@H](CCC(=O)O)C(=O)N[C@@H](CCCNC(=N)N)C(=O)N[C@@H](CCC(N)=O)C(=O)N[C@@H](CCCNC(=N)N)C(N)=O [Peptide II, N-Rev34-50 --am] (H-TRQARRNRRRRWRERQR-NH2)",2,0.3,3.9,approximately 4%,–,–,–,–,–
CC(=O)N[C@H](C(=O)N[C@@H](CCCNC(=N)N)C(=O)N[C@@H](CCC(N)=O)C(=O)N[C@@H](C)C(=O)N[C@@H](CCCNC(=N)N)C(=O)N[C@@H](CCCNC(=N)N)C(=O)N[C@@H](CC(N)=O)C(=O)N[C@@H](CCCNC(=N)N)C(=O)N[C@@H](CCCNC(=N)N)C(=O)N[C@@H](CCCNC(=N)N)C(=O)N[C@@H](CCCNC(=N)N)C(=O)N[C@@H](Cc1c[nH]c2ccccc12)C(=O)N[C@@H](CCCNC(=N)N)C(=O)N[C@@H](CCC(=O)O)C(=O)N[C@@H](CCCNC(=N)N)C(=O)N[C@@H](CCC(N)=O)C(=O)N[C@@H](CCCNC(=N)N)C(N)=O)[C@@H](C)O [Peptide III] (Ac-TRQARRNRRRRWRERQR-NH2),2,0.1,10.9,–,–,–,–,–,–
C[C@H](NC(=O)[C@H](CCC(N)=O)NC(=O)[C@H](CCCNC(=N)N)NC(=O)[C@@H](N)[C@@H](C)O)C(=O)N[C@@H](CCCNC(=N)N)C(=O)N[C@@H](CCCNC(=N)N)C(=O)N[C@@H](CC(N)=O)C(=O)N[C@@H](CCCNC(=N)N)C(=O)N[C@@H](CCCNC(=N)N)C(=O)N[C@@H](CCCNC(=N)N)C(=O)N[C@@H](CCCNC(=N)N)C(=O)N[C@@H](Cc1c[nH]c2ccccc12)C(=O)N[C@@H](CCCNC(=N)N)C(=O)N[C@@H](CCC(=O)O)C(=O)N[C@@H](CCCNC(=N)N)C(=O)N[C@@H](CCC(N)=O)C(=O)N[C@@H](CCCNC(=N)N)C(=O)O [Peptide I] (H-TRQARRNRRRRWRERQR-OH),3,2,0.1,–,binds only slightly better to wild-type IIB than to the mutant RNA; also recorded: essentially unable to discriminate between wild-type and mutant RNAs,mostly unstructured,–,–,–
C[C@H](NC(=O)[C@H](CCC(N)=O)NC(=O)[C@H](CCCNC(=N)N)NC(=O)[C@@H](N)[C@@H](C)O)C(=O)N[C@@H](CCCNC(=N)N)C(=O)N[C@@H](CCCNC(=N)N)C(=O)N[C@@H](CC(N)=O)C(=O)N[C@@H](CCCNC(=N)N)C(=O)N[C@@H](CCCNC(=N)N)C(=O)N[C@@H](CCCNC(=N)N)C(=O)N[C@@H](CCCNC(=N)N)C(=O)N[C@@H](Cc1c[nH]c2ccccc12)C(=O)N[C@@H](CCCNC(=N)N)C(=O)N[C@@H](CCC(=O)O)C(=O)N[C@@H](CCCNC(=N)N)C(=O)N[C@@H](CCC(N)=O)C(=O)N[C@@H](CCCNC(=N)N)C(N)=O [Rev34-50] (H-TRQARRNRRRRWRERQR-NH2),–,–,–,–,–,–,about 10 fold,about 10 fold,about 10 fold
